The values below are quoted from earlier work in US8535722B2, “Functionally graded biocompatible coating and coated implant” (priority 2005, dated 2013).

For `[Ag]` [Ag/Ag^+, silver], the “threshold of cytotoxicity in vivo” value is on record as 10 ppm.
